Experimental data taken from US20250171461A1, “STIMULATOR OF INTERFERON GENES (STING) MODULATORS, AND COMPOSITIONS AND METHODS THEREOF” (Geode Therapeutics Inc., priority 2022, published 2025).

biological target: T1, human HAQ STING isoform (hSTING HAQ) (Homo sapiens, UniProt Q86WV6, G230A/H232R/R293Q/R71H); test: IFN-β mRNA level in THP1 cells (qPCR, STING agonist cellular activity); type: cell-based; conditions: compound at 3.6 μM, 2 hrs, IFNβ expression normalized against GAPDH by the 2^-ΔΔCT method, DMSO = 1.0
T1 construct: THP1 cells express the naturally occurring human HAQ STING isoform (hSTING HAQ); host or cells: THP1
T1 sequence (Q86WV6 whole entry R71H/G230A/H232R/R293Q, canonical isoform): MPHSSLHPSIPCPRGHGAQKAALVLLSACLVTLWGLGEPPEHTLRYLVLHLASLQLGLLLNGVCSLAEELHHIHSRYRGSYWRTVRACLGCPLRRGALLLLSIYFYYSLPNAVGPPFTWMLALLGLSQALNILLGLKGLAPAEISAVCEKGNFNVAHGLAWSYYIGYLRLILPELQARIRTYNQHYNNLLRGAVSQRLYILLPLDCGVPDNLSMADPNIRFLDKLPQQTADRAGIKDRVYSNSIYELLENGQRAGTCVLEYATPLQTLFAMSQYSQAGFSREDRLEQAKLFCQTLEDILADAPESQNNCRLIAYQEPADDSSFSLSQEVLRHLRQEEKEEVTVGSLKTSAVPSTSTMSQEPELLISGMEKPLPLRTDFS
Procedure, shortened: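 THP1 cells were seeded at 9×10^5 per well, incubated overnight, then treated with compound at 3.6 μM final (0.1% DMSO control) for 2 hrs at 37 °C. IFN-β mRNA was measured by SYBR Green qPCR, normalised to GAPDH by the 2^−ΔΔCT method, in triplicate.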

SMILES	Relative mRNA INFβ/GAPDH THP 1
Nc1ccc(N2CCC[C@H](N(Cc3ccccc3)Cc3cn4c5c(c(F)c(F)cc5c3=O)OCC4)C2)cn1 [Compound 72, (S)-6-(((1-(6-aminopyridin-3-yl)piperidin-3-yl)(benzyl)amino)methyl)-9,10-difluoro-2,3-dihydro-7H-[1,4]oxazino[2,3,4-ij]quinolin-7-one]	31.9
COc1cc(CN(Cc2cn3c4c(cc(F)c(F)c4c2=O)OCC3C)[C@H]2CCCN(c3ccc(N)nc3)C2)ccn1 (stereo partly drawn) [Compound 52, 6-((((S)-1-(6-aminopyridin-3-yl)piperidin-3-yl)((2-methoxypyridin-4-yl)methyl)amino)methyl)-8,9-difluoro-3-methyl-2H-[1,4]oxazino[2,3,4-ij]quinolin-7(3H)-one]	178.2
COc1cc(CN(Cc2cn3c4c(c(F)c(F)cc4c2=O)OCC3)[C@H]2CCCN(c3cnccn3)C2)ccn1 [Compound 84, (S)-9,10-difluoro-6-((((2-methoxypyridin-4-yl)methyl)(1-(pyrazin-2-yl)piperidin-3-yl)amino)methyl)-2,3-dihydro-7H-[1,4]oxazino[2,3,4-ij]quinolin-7-one]	0.9
Nc1ccc(N2CCC[C@H](N(Cc3ccccn3)Cc3cn4c5c(c(F)c(F)cc5c3=O)OCC4)C2)cn1 [Compound 75, (S)-6-(((1-(6-aminopyridin-3-yl)piperidin-3-yl)(pyridin-2-ylmethyl)amino)methyl)-9,10-difluoro-2,3-dihydro-7H-[1,4]oxazino[2,3,4-ij]quinolin-7-one]	1.1
COc1cc(CN(Cc2cn3c4c(c(N5CC6CC(F)(F)CC6C5)c(F)cc4c2=O)OCC3C)[C@H]2CCCN(c3ccc(N)nc3)C2)ccn1 (stereo partly drawn) [Compound 46, 6-((((S)-1-(6-aminopyridin-3-yl)piperidin-3-yl)((2-methoxypyridin-4-yl)methyl)amino)methyl)-10-(5,5-difluorohexahydrocyclopenta[c]pyrrol-2(1H)-yl)-9-fluoro-3-methyl-2H-[1,4]oxazino[2,3,4-ij]quinolin-7(3H)-one]	691.4
COc1cc(CN(Cc2cn3c4c(c(N5CCCCC5=O)c(F)cc4c2=O)OCC3C)[C@H]2CCCN(c3ccc(N)nc3)C2)ccn1 (stereo partly drawn) [Compound 60, 6-((((S)-1-(6-aminopyridin-3-yl)piperidin-3-yl)((2-methoxypyridin-4-yl)methyl)amino)methyl)-9-fluoro-3-methyl-10-(2-oxopiperidin-1-yl)-2H-[1,4]oxazino[2,3,4-ij]quinolin-7(3H)-one]	174.3
COc1cc(CN(Cc2cn3c4c(c(F)c(F)cc4c2=O)OC[C@H]3C)[C@H]2CCCN(c3ccc(N)nc3)C2)ccn1 [Compound 5, (R)-6-((((S)-1-(6-aminopyridin-3-yl)piperidin-3-yl)((2-methoxypyridin-4-yl)methyl)amino)methyl)-9,10-difluoro-3-methyl-2H-[1,4]oxazino[2,3,4-ij]quinolin-7(3H)-one]	1627.5
COc1cc(CN(Cc2cn3c4c(c(F)c(F)cc4c2=O)OCC3C)[C@H]2CCCN(c3ccc(N)nc3)C2)c(Cl)cn1 (stereo partly drawn) [Compound 4, 6-((((S)-1-(6-aminopyridin-3-yl)piperidin-3-yl)((5-chloro-2-methoxypyridin-4-yl)methyl)amino)methyl)-9,10-difluoro-3-methyl-2H-[1,4]oxazino[2,3,4-ij]quinolin-7(3H)-one]	587.4
COc1cc(CN(Cc2cn3c4c(c(C)c(F)cc4c2=O)OCC3C)[C@H]2CCCN(c3ccc(N)nc3)C2)ccn1 (stereo partly drawn) [Compound 57, 6-((((S)-1-(6-aminopyridin-3-yl)piperidin-3-yl)((2-methoxypyridin-4-yl)methyl)amino)methyl)-9-fluoro-3,10-dimethyl-2H-[1,4]oxazino[2,3,4-ij]quinolin-7(3H)-one]	580.9
O=c1c(CN(Cc2ccncn2)[C@H]2CCCN(c3cnccn3)C2)cn2c3c(c(F)c(F)cc13)OCC2 [Compound 85, (S)-9,10-difluoro-6-(((1-(pyrazin-2-yl)piperidin-3-yl)(pyrimidin-4-ylmethyl)amino)methyl)-2,3-dihydro-7H-[1,4]oxazino[2,3,4-ij]quinolin-7-one]	0.9
COc1cc(CN(Cc2cn3c4c(c(N5CCC(O)CC5)c(F)cc4c2=O)OCC3C)[C@H]2CCCN(c3ccc(N)nc3)C2)ccn1 (stereo partly drawn) [Compound 31, 6-((((S)-1-(6-aminopyridin-3-yl)piperidin-3-yl)((2-methoxypyridin-4-yl)methyl)amino)methyl)-9-fluoro-10-(4-hydroxypiperidin-1-yl)-3-methyl-2H-[1,4]oxazino[2,3,4-ij]quinolin-7(3H)-one]	1162.4
COc1cc(CN(Cc2cn3c4c(c(F)c(F)cc4c2=O)OCC3C)[C@H]2CCCN(c3ccc(N(C)C4CC4)nc3)C2)ccn1 (stereo partly drawn) [Compound 21, 11-[[[(3S)-1-[6-[cyclopropyl(methyl)amino]-3-pyridyl]-3-piperidyl]-[(2-methoxy-4-pyridyl)methyl]amino]methyl]-6,7-difluoro-2-methyl-4-oxa-1-azatricyclo[7.3.1.0^5,13]trideca-5(13),6,8,11-tetraen-10-one]	114.6
O=c1c(CN(Cc2ccncc2F)[C@H]2CCCN(c3cnccn3)C2)cn2c3c(c(F)c(F)cc13)OCC2 [Compound 87, (S)-9,10-difluoro-6-((((3-fluoropyridin-4-yl)methyl)(1-(pyrazin-2-yl)piperidin-3-yl)amino)methyl)-2,3-dihydro-7H-[1,4]oxazino[2,3,4-ij]quinolin-7-one]	1.2
COc1cc(CN(Cc2cn3c4c(c(F)c(F)cc4c2=O)OC(C)C3)[C@H]2CCCN(c3ccc(N)nc3)C2)ccn1 (stereo partly drawn) [Compound 51, 6-((((S)-1-(6-aminopyridin-3-yl)piperidin-3-yl)((2-methoxypyridin-4-yl)methyl)amino)methyl)-9,10-difluoro-2-methyl-2H-[1,4]oxazino[2,3,4-ij]quinolin-7(3H)-one]	7257.8
COc1cc(CN(Cc2cn3c4c(c(Br)c(F)cc4c2=O)OCC3C)[C@H]2CCCN(c3ccc(N)nc3)C2)ccn1 (stereo partly drawn) [Compound 55, 6-((((S)-1-(6-aminopyridin-3-yl)piperidin-3-yl)((2-methoxypyridin-4-yl)methyl)amino)methyl)-10-bromo-9-fluoro-3-methyl-2H-[1,4]oxazino[2,3,4-ij]quinolin-7(3H)-one]	655.0
COc1cc(CN(Cc2cn3c4c(c(F)c(F)cc4c2=O)OCC3C)[C@H]2CCCN(c3ccc(NCC4CC4)nc3)C2)ccn1 (stereo partly drawn) [Compound 20, 11-[[[(3S)-1-[6-(cyclopropylmethylamino)-3-pyridyl]-3-piperidyl]-[(2-methoxy-4-pyridyl)methyl]amino]methyl]-6,7-difluoro-2-methyl-4-oxa-1-azatricyclo[7.3.1.0^5,13]trideca-5(13),6,8,11-tetraen-10-one]	2142.1
N#Cc1cc(CN(Cc2cn3c4c(c(F)c(F)cc4c2=O)OCC3)[C@H]2CCCN(c3cnccn3)C2)ccn1 [Compound 89, (S)-4-((((9,10-difluoro-7-oxo-2,3-dihydro-7H-[1,4]oxazino[2,3,4-ij]quinolin-6-yl)methyl)(1-(pyrazin-2-yl)piperidin-3-yl)amino)methyl)picolinonitrile]	1.3
COc1cc(CN(Cc2cn3c4c(c(-c5ccc(CCO)cn5)c(F)cc4c2=O)OCC3C)[C@H]2CCCN(c3ccc(N)nc3)C2)ccn1 (stereo partly drawn) [Compound 64, 6-((((S)-1-(6-aminopyridin-3-yl)piperidin-3-yl)((2-methoxypyridin-4-yl)methyl)amino)methyl)-9-fluoro-10-(5-(2-hydroxyethyl)pyridin-2-yl)-3-methyl-2H-[1,4]oxazino[2,3,4-ij]quinolin-7(3H)-one]	26.6
COc1cc(CN(Cc2cn3c4c(c(F)c(F)cc4c2=O)OCC3)[C@H]2CCCN(c3ccc(C)nc3)C2)ccn1 [Compound 80, (S)-9,10-difluoro-6-((((2-methoxypyridin-4-yl)methyl)(1-(6-methylpyridin-3-yl)piperidin-3-yl)amino)methyl)-2,3-dihydro-7H-[1,4]oxazino[2,3,4-ij]quinolin-7-one]	6820.3
Cc1cc(CN(Cc2cn3c4c(c(F)c(F)cc4c2=O)OCC3)[C@H]2CCCN(c3cccnc3)C2)ccn1 [Compound 81, (S)-9,10-difluoro-6-((((2-methylpyridin-4-yl)methyl)(1-(pyridin-3-yl)piperidin-3-yl)amino)methyl)-2,3-dihydro-7H-[1,4]oxazino[2,3,4-ij]quinolin-7-one]	5719.5
Cc1cc(CN(Cc2cn3c4c(c(F)c(F)cc4c2=O)OCC3)[C@H]2CCCN(c3cnccn3)C2)ccn1 [Compound 83, (S)-9,10-difluoro-6-((((2-methylpyridin-4-yl)methyl)(1-(pyrazin-2-yl)piperidin-3-yl)amino)methyl)-2,3-dihydro-7H-[1,4]oxazino[2,3,4-ij]quinolin-7-one]	1.2
COc1cc(CN(Cc2cn3c4c(c(N5CCC(N6CCOCC6)CC5)c(F)cc4c2=O)OCC3C)[C@H]2CCCN(c3ccc(N)nc3)C2)ccn1 (stereo partly drawn) [Compound 36, 6-((((S)-1-(6-aminopyridin-3-yl)piperidin-3-yl)((2-methoxypyridin-4-yl)methyl)amino)methyl)-9-fluoro-3-methyl-10-(4-morpholinopiperidin-1-yl)-2H-[1,4]oxazino[2,3,4-ij]quinolin-7(3H)-one]	9395.6
